Test results as given in patent US9861702B2, “Lipid-conjugated rhamnose for immune system recruitment and oncotherapy” (WISCONSIN ALUMNI RESEARCH FOUNDATION, priority 2012, dated 2018).
Entries after “also recorded” stand apart in the source; their conditions may differ. Where two headings read alike, the source gives them in different places. Values belong to the compound of their own block, whether it stands above or below them.

What was measured:
[1] = system: complement component C4d; assay: Activation of complement, deposition of complement component C4d on treated M21 cells, flow cytometry; format: cell-based; details: 25% normal human serum, 1 hour at 37° C.
Description: FIG. 6 is a graph showing the results of flow cytometry measurements of M21 cells treated with the indicated rhamnose-lipid conjugates, or with an antibody known to activate complement (14.18) exposed to normal human serum and subsequently stained for C4d, a marker of complement activation.
Rhamnose-lipid conjugates 4 (Rha1-DPoPE) and 51 (Rha2-DPoPE) were synthesized as described in Example 1. The ability of these compounds to activate complement was tested by looking for deposition of complement component C4d. M21 cells treated with buffer, rha1-DPoPE, rha2-DPoPE, or a control antibody known to activate complement (14.18) were exposed to 25% normal human serum for 1 hour at 37° C., washed and stained for C4d, and analyzed by flow cytometry. […] The 14.18 antibody employed was the Ch14.18-IL2 fusion protein [Gillies, S D; Lan, Y; Lo, K M; Super, M; Wesolowski, J (1999) “Improving the efficacy of antibody-interleukin 2 fusion proteins by reducing their interaction with Fc receptors.” Cancer Research vol. 59 (9) p. 2159-66.]

[2] = system: M21 cells; format: cell-based; details: normal donor serum, FIG. 9
Description: The requisite amount of chloroform solution containing each lipid compound was measured into a glass vial. Chloroform was removed by blowing argon into the vial until all solvent was evaporated leaving a lipid film on the glass. The lipid film was hydrated with sufficient buffer (HBSS with 1% BSA) to yield a 0.1 mM solution for 30 minutes at room temperature. The vials were then sonicated in a water bath sonicator to cause the lipids to sheet off of the glass. It is believed that the lipids form vesicle structures in the buffer.
M21 cells were plated in a 12-well plate and allowed to grow over night. The next morning, the growth medium was removed and replaced with 0.5 mL of buffer (control) or lipid suspension. Cells were incubated in contact with lipids for 1 hour at 37° C. to allow for lipid insertion. The lipid suspension was then aspirated and cells were striped from the plate with 1 mM EDTA in PBS pH 7.4. The EDTA/cell suspensions were diluted ˜1:1 with HBSS/BSA buffer, spun down and resuspended at 500,000 cells mL^−1. Cell samples where CD55 and CD59 were to remain functional were diluted 1:1 in HBSS/BSA buffer. Cell samples in which complement inhibitory factors were to be blocked were diluted 1:1 with HBSS/BSA containing 20 μg/mL of each blocking antibody (anti-CD55: clone 143-30 from Southern Biotech, anti-CD59: clone MEM-43 from Novus Biologicals) for a final concentration of 10 μg/mL of each antibody.
Cell suspensions (50 μL) were added to an opaque white 96-well plate in sextuplicate. […] (See plate illustration FIG. 7.) The plate was incubated at 37° C. for two hours to allow for complement activation and cell killing. After 2 hours, the plate was removed from the incubator and allowed to come to room temperature. […] Luminescence was read on a Tecan M1000 plate reader.
Luminescence values were averaged for each set of triplicate wells. Since luminescence correlates to viable cells and the heat killed serum wells provide a measure of non-specific cell death, the fraction of viable cells for each condition is calculated as (avg. luminescencenormal serum)/(avg. luminescenceheat killed serum). […]
FIG. 9 is a graph presenting results in terms of % viable cells for an experiment conducted with M21 cells as noted above which compared treatment of cells with lipid alone serum alone (negative control) (DPoPE), lipid+addition of CD55 and CD59 blocking antibodies, Rha2-lipid 51, Rha2-lipid 51+CD55 and CD59 blocking antibodies, 14.18-IL2 antibody (positive control), and 14.18-IL@antibody+CD55 and CD59 blocking antibodies. […] Cell Titer-Glo® assay (Promega) was used to measure living cells, Viability=(luminescence in wells treated with normal serum)/(luminescence of wells treated with heat inactivated serum).

[3] = system: M21 cells; assay: Chromium-51 release assay (CDC / ADCC); format: cell-based
Description: Experiments were performed using the art-recognized Chromium-51 (^51Cr) release assay to assess if Rha2-lipid conjugate 51 was capable of activating cellular responses ADCC.
M21 cells were treated with lipid as described in Example 6. Target cells are labeled with ^51Cr and the release of label is a measure of cell cytolysis. In this case, the cells were contacted with Na^51Cr label overnight which is somewhat longer than is typically employed in the assay.
This confirms results from Example 6 that Rha2-DPoPE was able to mediate CDC. Peripheral blood mononuclear cells (PBMCs) include immune effector cells some of which express CD16, the most important class of which is natural killer cells.

[4] = system: M21 cells; assay: Fluorescent lipid insertion levels, quantitative flow cytometry with calibration beads; format: cell-based
Excerpt: FIG. 5 is a graph showing the results of flow cytometry measurements to assess the levels of insertion of fluorescent lipid conjugates into M21 cells. See Example 4 and Scheme 6 for details. Under the treatment conditions used, insertion levels of approximately 3×10^6 lipids per cell was achieved. All three fluorescent labeled lipids inserted robustly into the cell membrane.
To estimate lipid insertion levels into model cells, three fluorescent lipid derivatives were synthesized: 101 an Alexa-Fluor® 488 dye conjugated to cholesterol, 102 Alexa-Fluor® 488 dye (Life Technologies) conjugated to POPE and 103 an Alexa-Fluor® 488 dye conjugated to DPoPE. M21 cells were treated with these lipids and assessed by quantitative flow cytometry using calibration beads to determine the number of fluorophores per cell. The results are illustrated in FIG. 5.

[5] = system: antibodies in human serum; assay: Stability of antigen-antibody complexes in serum, SPR loss of response units over 1 hour; format: binding; details: over one hour, corrected RU
Description: FIG. 3 also includes a Table showing percentage loss calculated as (RUT2)/RuT1. All RU were corrected by reference subtraction.
The relative stability of antigen-antibody complexes for DNP, αGal and Rha in serum was assessed by evaluating RU (corrected RU) as a function of time (over 1 hour). FIG. 3 illustrates the decay of RU with time for antigen-antibody complexes for the three antigens. Due to the complexity of these systems, exact kinetic parameters could not be determined; however the loss of response units over time provides an estimate rank ordering of dissociation rates and complex longevity.

[6] = system: M21 cells; assay: DNP-lipid insertion into cell membranes, anti-DNP staining, flow cytometry; format: cell-based; details: M21 cells treated with DNP-lipid, stained with anti-DNP
Excerpt: FIG. 4 is a graph showing the results of flow cytometry measurement of M21 cells treated with or without DNP-lipid and stained with anti-DNP. DNP-lipid 100 (Avanti Polar Lipids, Alabaster, Ala.) was used for the experiment.
As an initial assessment of antigen-lipid insertion into cell membranes, a hapten-lipid conjugate, DNP-lipid (100, a dipalmitoleoyl phosphatidylethanolamine-DNP conjugate) and anti-DNP-antibody were used to determine if (1) lipids would insert into model M21 cell line and (2) if the antigen headgroups of the antigen-lipid conjugates would remain accessible to antibodies. M21 cells treated with the DNP-lipid followed by staining with anti-DNP were analyzed by flow cytometry (FIG. 4).

[7] = system: antibodies in human serum; assay: Biosensor (SPR) analysis of antibody levels in human serum against immobilized biotinylated antigens; format: binding; details: 10% serum, after 5 minutes of serum exposure, biotinylated antigen on streptavidin chip
Excerpt: Biosensor analysis was used to evaluate levels of antibodies in human serum. Surface plasmon resonance (SPR) is an information-rich technique requiring only small amounts of material, and surfaces with immobilized compounds can be regenerated and used multiple times. Although this technique is most often associated with determination of kinetic parameters, it is also useful for rank ordering interactions with ligands and antibody characterization, and is compatible with serum. […] The biotinylated antigens were immobilized on streptavidin-coated sensor chips along with a biotinylated control peptide in a reference channel. Serum was collected from healthy volunteer donors under IRB-approved Human Subjects minimal risk protocol M-2005-1282 at the University of Wisconsin-Madison. To limit bulk refractive index changes and keep signal within the instrument's detection range, solutions of 10% serum were flowed across the chip, contacting antigens in this order: […] As a measure of antibody prevalence, corrected response units (RUantigen-RUreference) bound to each flow channel were compared after 5 minutes of serum exposure; more RU indicated greater antibody binding and therefore, a higher titer. […] Antibodies to rhamnose were further assessed with ELISA assays using immobilized rhamnose-BSA.

[8] = plus CD55 and CD59 blocking antibodies 10 μg/mL each

Compound: CCCCCC/C=C\CCCCCCCC(=O)OC[C@H](COP(=O)(O)OCCNCCCCO[C@@H]1OC(C)[C@H](O)[C@H](O)C1O)OC(=O)CCCCCCC/C=C\CCCCCC (some centres unmarked) [Compound 4, Rha1-DPoPE]
- complement activation (C4d staining) [1]: activated complement

Compound: CCCCCC/C=C\CCCCCCCC(=O)OC[C@H](COP(=O)(O)OCCN(CCCCO[C@@H]1OC(C)[C@H](O)[C@H](O)C1O)CCCCO[C@@H]1OC(C)[C@H](O)[C@H](O)C1O)OC(=O)CCCCCCC/C=C\CCCCCC (some centres unmarked) [Compound 51, Rha2-DPoPE]
- complement activation (C4d staining) [1]: more efficient
- % viability ([2]; CD55 and CD59 functional): large decrease in viability
- % viability [2, 8]: significantly amplified
- 51Cr release (cytotoxicity, CDC) ([3]; serum alone, FIG. 10 left bar): Cr-51 was released
- 51Cr release (cytotoxicity) ([3]; serum with PBMCs added, FIG. 10 right bar): cytotoxicity increased

Compound: CC(C)CCC[C@@H](C)[C@H]1CC[C@H]2[C@@H]3CC=C4C[C@H](OC(=O)NCCOCCOCCNC(=O)c5cccc(-c6c7ccc(=N)c(S(=O)(=O)O)c-7oc7c(S(=O)(=O)O)c(N)ccc67)c5C(=O)O)CC[C@]4(C)[C@H]3CC[C@]12C [Compound 101]
- insertion into cell membranes, copy numbers (fluorophores per cell) [4]: around 3×10^6

Compound: O=[N+]([O-])c1ccc(O)c([N+](=O)[O-])c1 [DNP, 2,4-dinitrophenol]
- loss of binding signal (response units) of antigen-antibody complex over time [5]: signal loss was greater

Compound: CCCCCCCCCCCCCCCC(=O)OC[C@H](COP(=O)(O)OCCNC(=O)CCCCCNc1ccc([N+](=O)[O-])cc1[N+](=O)[O-])OC(=O)CCCCCCCCCCCCCCC.N [DNP-lipid]
- anti-DNP staining shift (membrane insertion, antigen head group accessibility) [6]: positive shift

Compound: CCCCCC/C=C\CCCCCCCC(=O)OC[C@H](COP(=O)(O)OCCN)OC(=O)CCCCCCC/C=C\CCCCCC [DPoPE, 1,2-dipalmitoleoyl-sn-glycero-3-phosphoethanolamine]
- % viability ([2]; CD55 and CD59 functional): remain equally viable
- % viability [2, 8]: slight negative impact on cell survival

- loss of binding signal (response units) of antigen-antibody complex over time [5]: signal loss was greater
Compound: OC[C@H]1O[C@H](O[C@H]2[C@@H](O)[C@@H](CO)OC(O)[C@@H]2O)[C@H](O)[C@@H](O)[C@H]1O (stereo partly drawn) [αGal, Gal-α-1,3-Gal]

Compound: rhamnose
- antibody prevalence (corrected response units bound, RUantigen-RUreference) [7]: more prevalent than those recognizing αGal in all cases; also recorded: equivalent or better to those recognizing DNP in most cases
- loss of binding signal (response units) of antigen-antibody complex over time [5]: affinity advantage over those of both αGal and DNP
